Reference: patent publication US9850283B2, “Macrocyclic inhibitors of the PD-1/PD-L1 and CD80(B7-1)/PD-L1 protein/protein interactions” (BRISTOL-MYERS SQUIBB COMPANY, priority 2013, dated 2017)
Where two headings read alike, the source gives them in different places. Positions of bridges follow the written chain, without caps; N, C: chain ends. Non-standard residues stand in square brackets, D forms with d. Residues, ends and D or L forms follow the SMILES beside them. ξ: configuration not given here. *: point of attachment. Bip(2'-Me) = Cc1ccccc1-c1ccc(C[C@H](N)C(=O)O)cc1; Trp(5-Cl) = N[C@@H](Cc1c[nH]c2ccc(Cl)cc12)C(=O)O; Phe(3-CF3) = N[C@@H](Cc1cccc(C(F)(F)F)c1)C(=O)O; Bip = N[C@@H](Cc1ccc(-c2ccccc2)cc1)C(=O)O; Cyclohexanecarbonyl = O=C(C1CCCCC1)*; Bta = N[C@@H](Cc1csc2ccccc12)C(=O)O; NMeNle = CCCC[C@H](NC)C(=O)O; ξR = N=C(N)NCCCC(N)C(=O)O; NMeA = CN[C@@H](C)C(=O)O; 2Furoyl = O=C(c1ccco1)*; Dab = NCC[C@H](N)C(=O)O; Dap = NC[C@H](N)C(=O)O; Bz = O=C(c1ccccc1)*; ξP = O=C(O)C1CCCN1; ξC = NC(CS)C(=O)O; ξS = NC(CO)C(=O)O; Sar = CNCC(=O)O

Columns and labels:
Human PD-L1/PD-1 = target: T1, Human PD-L1/PD-1 (Homo sapiens, UniProt Q9NZQ7); assay: HTRF PD-1-Ig/PD-L1-His binding assay (human PD-L1)
T1 construct: made in house; host or cells: HEK293T
Summary of the method: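 Soluble Fc-fused PD-1 and His-tagged PD-L1 (truncated before the transmembrane region) were combined in dPBS with 0.1% (w/v) BSA and 0.05% (v/v) Tween-20. Binding was read by HTRF using europium cryptate anti-Ig antibody (1 nM final) and APC anti-His antibody (20 nM final).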

[1] = target: T2, LK35.2-hPD-L1 cells / PE-labeled PD-1-Ig (Homo sapiens, UniProt Q9NZQ7); assay: LK35.2-hPD-L1 cell binding high-content screening assay; assay type: cell-based; settings: cell line of CBA not given (LK35.2-hPD-L1 or 293T-hPD-L1)
T2 construct: expressed in transfected cells; host or cells: LK35.2 mouse B cell line
Method: LK35.2-hPD-L1 Cell Binding High-Content Screening Assay. Phycoerythrin (PE) was covalently linked to the Ig epitope tag of human PD-1-Ig and fluorescently-labeled PD-1-Ig was used for binding studies with a mouse B cell line (LK35.2) stably over-expressing human PD-L1 (LK35.2-hPD-L1). Briefly, 3×10^3 LK35.2-hPD-L1 cells were seeded into 384 well plates in 20 ul of RPMI supplemented with 10% fetal calf serum and cultured overnight. 125 nl of compound was added to cells, followed by 5 ul of PE-labeled PD-1-Ig (1 nM final), diluted in RPMI supplemented with 10% fetal calf serum, followed by incubation at 37° C. for 1 h. […] Cells were washed 3× in 100 ul of dPBS followed by final addition of 15 ul of dPBS. Data was collected and processed using a Cell Insight NXT High Content Imager and associated software.

[2] = HTRF IC50 cluster, cluster symbol
[3] = CBA IC50 cluster, cluster symbol
[4] = cluster symbol, read-out: HTRF IC50 cluster
[5] = cluster symbol, read-out: CBA IC50 cluster

T2 sequence (Q9NZQ7 19-290): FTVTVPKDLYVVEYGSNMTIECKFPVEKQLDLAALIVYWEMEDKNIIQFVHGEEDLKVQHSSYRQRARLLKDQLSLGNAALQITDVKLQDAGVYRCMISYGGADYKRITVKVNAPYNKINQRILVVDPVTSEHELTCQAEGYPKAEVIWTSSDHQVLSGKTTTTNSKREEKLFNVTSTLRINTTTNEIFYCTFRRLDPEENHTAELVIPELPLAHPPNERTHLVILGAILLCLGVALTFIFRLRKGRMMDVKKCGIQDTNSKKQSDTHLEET
T1 sequence (Q9NZQ7 with tags, fused parts or gaps): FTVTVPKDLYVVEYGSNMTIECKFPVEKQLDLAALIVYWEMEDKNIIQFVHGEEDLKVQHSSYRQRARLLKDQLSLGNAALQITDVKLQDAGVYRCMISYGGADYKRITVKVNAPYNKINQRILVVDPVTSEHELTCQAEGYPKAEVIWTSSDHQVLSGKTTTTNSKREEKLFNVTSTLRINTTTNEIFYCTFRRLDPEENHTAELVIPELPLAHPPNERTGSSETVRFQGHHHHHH

Row | IC50 (Human PD-L1/PD-1; [4]) [nM] | IC50 [1, 5] [nM] | Compound | other results
1 |  |  | CCCC[C@H]1C(=O)N[C@@H](CCCNC(=N)N)C(=O)N[C@H](C(=O)NCC(N)=O)CSCC(=O)N[C@@H](Cc2ccccc2)C(=O)N(C)[C@@H](C)C(=O)N[C@@H](CC(N)=O)C(=O)N2CCC[C@H]2C(=O)N[C@@H](Cc2cnc[nH]2)C(=O)N[C@@H](CC(C)C)C(=O)N(C)CC(=O)N[C@@H](Cc2c[nH]c3ccccc23)C(=O)N[C@@H](CO)C(=O)N[C@@H](Cc2c[nH]c3ccccc23)C(=O)N[C@@H](CNC(=O)c2ccccc2)C(=O)N1C [Example 1013] ({CH2CO}-F[NMeA]NPHL[Sar]WSW[Dap](Bz)[NMeNle]RCG-NH2; thioether N-14) | IC50 (Human PD-L1/PD-1; [2]): > 30.5 nM; IC50 [1, 3]: > 74.3 nM
2 | 0.385 to 6.74 | 0.158 to 4.71 | CCCC[C@H]1C(=O)N(C)[C@@H](CCCC)C(=O)N[C@@H](CCCNC(=N)N)C(=O)N[C@H](C(=O)NCC(N)=O)CSCC(=O)N[C@@H](Cc2ccc(O)cc2)C(=O)N(C)[C@@H](C)C(=O)N[C@@H](CC(N)=O)C(=O)N2CCC[C@H]2C(=O)N[C@@H](Cc2cnc[nH]2)C(=O)N[C@@H](CC(C)C)C(=O)N2CCC[C@H]2C(=O)N[C@@H](Cc2c[nH]c3ccccc23)C(=O)N[C@@H](CO)C(=O)N[C@@H](Cc2csc3ccccc23)C(=O)N1C [Example 1014] ({CH2CO}-Y[NMeA]NPHLPWS[Bta][NMeNle][NMeNle]RCG-NH2; thioether N-14) | 
3 | 6.76 to 30.3 | 4.78 to 72.9 | CCCC[C@H]1C(=O)N(C)[C@@H](CCCC)C(=O)N[C@@H](CCCNC(=N)N)C(=O)N[C@H](C(=O)NCC(N)=O)CSCC(=O)N[C@@H](Cc2ccccc2)C(=O)N(C)[C@@H](C)C(=O)N[C@@H](CC(N)=O)C(=O)N2CCC[C@H]2C(=O)N[C@@H](Cc2cnc[nH]2)C(=O)N[C@@H](CC(C)C)C(=O)N2CCC[C@H]2C(=O)N[C@@H](Cc2c[nH]c3ccccc23)C(=O)N[C@@H](CO)C(=O)N[C@@H](Cc2csc3ccccc23)C(=O)N1C [Example 1015] ({CH2CO}-F[NMeA]NPHLPWS[Bta][NMeNle][NMeNle]RCG-NH2; thioether N-14) | 
4 | 0.385 to 6.74 | 0.158 to 4.71 | CCCC[C@H]1C(=O)N(C)[C@@H](CCCC)C(=O)N[C@@H](CCCNC(=N)N)C(=O)N[C@H](C(=O)NCC(N)=O)CSCC(=O)N[C@@H](Cc2ccc(O)cc2)C(=O)N(C)[C@@H](C)C(=O)N[C@@H](CC(N)=O)C(=O)N2CCC[C@H]2C(=O)N[C@@H](Cc2cnc[nH]2)C(=O)N[C@@H](CC(C)C)C(=O)N2CCC[C@H]2C(=O)N[C@@H](Cc2c[nH]c3ccccc23)C(=O)N[C@@H](CO)C(=O)N[C@@H](Cc2c[nH]c3ccccc23)C(=O)N1C [Example 1016] ({CH2CO}-Y[NMeA]NPHLPWSW[NMeNle][NMeNle]RCG-NH2; thioether N-14) | 
5 | > 30.5 | > 74.3 | CCCC[C@H]1C(=O)N[C@@H](CCCNC(=N)N)C(=O)N[C@H](C(=O)NCC(N)=O)CSCC(=O)N[C@@H](Cc2ccccc2)C(=O)N(C)[C@@H](C)C(=O)N[C@@H](CC(N)=O)C(=O)N2CCC[C@H]2C(=O)N[C@@H](Cc2cnc[nH]2)C(=O)N[C@@H](CC(C)C)C(=O)N(C)CC(=O)N[C@@H](Cc2c[nH]c3ccccc23)C(=O)N[C@@H](CO)C(=O)N[C@@H](Cc2c[nH]c3ccccc23)C(=O)N[C@@H](CNC(=O)C2CCCCC2)C(=O)N1C [Example 1017] ({CH2CO}-F[NMeA]NPHL[Sar]WSW[Dap](Cyclohexanecarbonyl)[NMeNle]RCG-NH2; thioether N-14) | 
6 | > 30.5 | > 74.3 | CCCC[C@H]1C(=O)N(C)[C@@H](CCCC)C(=O)N[C@@H](CCCNC(=N)N)C(=O)N[C@H](C(=O)NCC(N)=O)CSCC(=O)N[C@@H](Cc2ccccc2)C(=O)N(C)[C@@H](C)C(=O)N[C@@H](CC(N)=O)C(=O)N2CCC[C@H]2C(=O)N[C@@H](Cc2cnc[nH]2)C(=O)N[C@@H](CC(C)C)C(=O)N(C)CC(=O)N[C@@H](Cc2cccc(C(F)(F)F)c2)C(=O)N[C@@H](CO)C(=O)N[C@@H](Cc2c[nH]c3ccccc23)C(=O)N1C [Example 1018] ({CH2CO}-F[NMeA]NPHL[Sar][Phe(3-CF3)]SW[NMeNle][NMeNle]RCG-NH2; thioether N-14) | 
7 |  |  | CCCC[C@H]1C(=O)N(C)[C@@H](CCCC)C(=O)N[C@@H](CCCNC(=N)N)C(=O)NC(C(=O)NCC(N)=O)CSCC(=O)N[C@@H](Cc2ccccc2)C(=O)N(C)[C@@H](C)C(=O)N[C@@H](CC(N)=O)C(=O)N2CCC[C@H]2C(=O)N[C@@H](Cc2cnc[nH]2)C(=O)N[C@@H](CC(C)C)C(=O)N[C@@H](CCNC(=O)C2CCCCC2)C(=O)N[C@@H](Cc2c[nH]c3ccccc23)C(=O)N[C@@H](CO)C(=O)N[C@@H](Cc2c[nH]c3ccccc23)C(=O)N1C (some centres unmarked) [Example 1021] | IC50 (Human PD-L1/PD-1; read-out: HTRF IC50 value): 180 nM; IC50 ([1]; read-out: CBA IC50 value): 262 nM
8 |  |  | CCCC[C@H]1C(=O)N(C)[C@@H](CCCC)C(=O)N[C@@H](CCCNC(=N)N)C(=O)N[C@H](C(=O)NCC(N)=O)CSCC(=O)N[C@@H](Cc2ccccc2)C(=O)N(C)[C@@H](C)C(=O)N[C@@H](CC(N)=O)C(=O)N2CCC[C@H]2C(=O)N[C@@H](Cc2c[nH]cn2)C(=O)N[C@@H](CC(C)C)C(=O)N[C@@H](CCNC(=O)c2ccccc2)C(=O)N[C@@H](Cc2c[nH]c3ccccc23)C(=O)N[C@@H](CO)C(=O)N[C@@H](Cc2c[nH]c3ccccc23)C(=O)N1C [Example 1022] ({CH2CO}-F[NMeA]NPHL[Dab](Bz)WSW[NMeNle][NMeNle]RCG-NH2; thioether N-14) | IC50 (Human PD-L1/PD-1; [2]): > 30.5 nM; IC50 [1, 3]: > 74.3 nM
9 | > 30.5 | > 74.3 | CCCC[C@H]1C(=O)N(C)[C@@H](CCCC)C(=O)N[C@@H](CCCNC(=N)N)C(=O)N[C@H](C(=O)NCC(N)=O)CSCC(=O)N[C@@H](Cc2ccccc2)C(=O)N(C)[C@@H](C)C(=O)N[C@@H](CC(N)=O)C(=O)N2CCC[C@H]2C(=O)N[C@@H](Cc2c[nH]cn2)C(=O)N[C@@H](CC(C)C)C(=O)N[C@@H](CCNC(=O)c2ccco2)C(=O)N[C@@H](Cc2c[nH]c3ccccc23)C(=O)N[C@@H](CO)C(=O)N[C@@H](Cc2c[nH]c3ccccc23)C(=O)N1C [Example 1023] ({CH2CO}-F[NMeA]NPHL[Dab](2Furoyl)WSW[NMeNle][NMeNle]RCG-NH2; thioether N-14) | 
10 | > 30.5 | > 74.3 | CCCC[C@H]1C(=O)N(C)[C@@H](CCCC)C(=O)N[C@@H](CCCNC(=N)N)C(=O)N[C@H](C(=O)NCC(N)=O)CSCC(=O)N[C@@H](Cc2ccccc2)C(=O)N(C)[C@@H](C)C(=O)N[C@@H](CC(N)=O)C(=O)N2CCC[C@H]2C(=O)N[C@@H](Cc2cnc[nH]2)C(=O)N[C@@H](CC(C)C)C(=O)N(C)CC(=O)N[C@@H](Cc2c[nH]c3ccc(Cl)cc23)C(=O)N[C@@H](CO)C(=O)N[C@@H](Cc2c[nH]c3ccc(Cl)cc23)C(=O)N1C [Example 1024] ({CH2CO}-F[NMeA]NPHL[Sar][Trp(5-Cl)]S[Trp(5-Cl)][NMeNle][NMeNle]RCG-NH2; thioether N-14) | 
11 | > 30.5 | > 74.3 | CCCC[C@H]1C(=O)N(C)[C@@H](CCCC)C(=O)N[C@@H](CCCNC(=N)N)C(=O)N[C@H](C(=O)NCC(N)=O)CSCC(=O)N[C@@H](Cc2ccccc2)C(=O)N(C)[C@@H](C)C(=O)N[C@@H](CC(N)=O)C(=O)N2CCC[C@H]2C(=O)N[C@@H](Cc2cnc[nH]2)C(=O)N[C@@H](CC(C)C)C(=O)N(C)CC(=O)N[C@@H](Cc2c[nH]c3ccc(Cl)cc23)C(=O)N[C@@H](CO)C(=O)N[C@@H](Cc2c[nH]c3ccccc23)C(=O)N1C [Example 1026] ({CH2CO}-F[NMeA]NPHL[Sar][Trp(5-Cl)]SW[NMeNle][NMeNle]RCG-NH2; thioether N-14) | 
12 | > 30.5 | > 74.3 | CCCC[C@H]1C(=O)N(C)[C@@H](CCCC)C(=O)NC(CCCNC(=N)N)C(=O)NC(C(=O)NCC(N)=O)CSCC(=O)N[C@@H](Cc2ccccc2)C(=O)N(C)[C@@H](C)C(=O)N[C@@H](CC(N)=O)C(=O)N2CCCC2C(=O)N[C@@H](Cc2cnc[nH]2)C(=O)N[C@@H](CC(C)C)C(=O)N(C)CC(=O)N[C@@H](Cc2c[nH]c3ccccc23)C(=O)NC(CO)C(=O)N[C@@H](Cc2ccc(-c3ccccc3)cc2)C(=O)N1C (some centres unmarked) [Example 1028] ({CH2CO}-F[NMeA]N[ξP]HL[Sar]W[ξS][Bip][NMeNle][NMeNle][ξR][ξC]G-NH2; thioether N-14) | 
13 | > 30.5 | > 74.3 | CCCC[C@H]1C(=O)N(C)[C@@H](CCCC)C(=O)NC(CCCNC(=N)N)C(=O)NC(C(=O)NCC(N)=O)CSCC(=O)N[C@@H](Cc2ccccc2)C(=O)N(C)[C@@H](C)C(=O)N[C@@H](CC(N)=O)C(=O)N2CCCC2C(=O)N[C@@H](Cc2cnc[nH]2)C(=O)N[C@@H](CC(C)C)C(=O)N(C)CC(=O)N[C@@H](Cc2c[nH]c3ccccc23)C(=O)NC(CO)C(=O)N[C@@H](Cc2ccc(-c3ccccc3C)cc2)C(=O)N1C (some centres unmarked) [Example 1030] ({CH2CO}-F[NMeA]N[ξP]HL[Sar]W[ξS][Bip(2'-Me)][NMeNle][NMeNle][ξR][ξC]G-NH2; thioether N-14) | 
